Here are results for nine compounds from patent publication US20080207751A1, “Sulindac Derivatives for Treatment of Cancer” (Sulfidris s.r.l., priority 2005, published 2008).

Molecules are shown by their SMILES. Where two headings read alike, the source gives them in different places.

As usually defined, the IC50 is the concentration at which inhibition is half-maximal.

One data set has as its system Caco 2 cells. The data set is described as follows: Anti-proliferative activity in Caco 2 cells. The class given is cell-based. The method, then: In order to analyze sulindac derivatives in combination therapies for treatment of colon cancer, the compound of example 4 was tested in Caco 2 cell lines comparatively with other known therapeutic agents at different concentrations.
The results of the treatment with 5-FU, celecoxib and docetaxel in Caco 2 cell are depicted in the Table 3 below reported.
In another experiment the compound of example 4 at IC50 concentration was incubated with submaximal concentrations of the anti-tumoral standard agents.

Data set [1] can be described thus: Five-day oral safety study in rats (deaths, gastrointestinal ulcers at autopsy). The format is in vivo. Particulars: male rats, once daily by gavage for five days; sulindac sulfoxide 20 mg/kg, compound example 1 36 mg/kg. The method, then: Thirty male rats (150-200 g) were divided into three groups of 10 animals/group and treated with vehicle, sulindac sulfoxide (20 mg/kg) and the compound example 1 (36 mg/kg) for five days once daily by gavage.
At the fifth day survival animals were sacrificed 6 hr after the treatment by an overdose of ether, and autopsied to detect any pathological changes, particularly in the gastrointestinal tract.

Data set [2] has as its system Aberrant crypt foci (ACF). Nature of the data set: Aberrant crypt foci (ACF) induced by 1,2-dimethylhydrazine in rats. The class given is in vivo. The following applies: DMH-induced ACF, Sprague-Dawley rats; equivalent anti-inflammatory doses, twice daily orogastric gavage for 3 weeks. On the procedure: Aberrant crypt foci (ACF) were induced in Sprague-Dawley rats by using 1,2-dimethylhydrazine (DMH). Test agents or vehicle were then administered for 3 weeks, twice daily through orogastric gavage.
At the end of this period, the number and multiplicity of ACF were determined.

In the case of `CC(=O)O[C@@]12CO[C@@H]1C[C@H](O)[C@@]1(C)C(=O)[C@H](O)C3=C(C)[C@@H](OC(=O)[C@H](O)[C@@H](NC(=O)OC(C)(C)C)c4ccccc4)C[C@@](O)([C@@H](OC(=O)c4ccccc4)[C@H]21)C3(C)C` [Docetaxel], the half-inhibitory concentration (IC50) in the data set on Caco 2 cells (Homo sapiens) worked out at 0.005 µM.

As for `CC1=C(CC(=O)Oc2ccc(-c3cc(=S)ss3)cc2)c2cc(F)ccc2/C1=C\c1ccc([S+](C)[O-])cc1` (centres unmarked) [Example 1, (Z)-5-Fluoro-2-methyl-1-[[4-(methylsulfinyl)phenyl]methylene]-1H-indene-3-acetic acid 4-(thioxo-5H-1-[1,2]dithiol-3-yl)-phenyl ester], in data set [1], the “% deaths” value was found to be 0% and the “% gastrontestinal ulcers” value is reported as 10%.

For `CC1=C(CC(=O)Oc2ccc(-c3cc(=S)ss3)cc2)c2cc(F)ccc2/C1=C\c1ccc(S(C)(=O)=O)cc1` [Example 3, (Z)-5-Fluoro-2-methyl-1-[[4-(methylsulfone)phenyl]methylene]-1H-indene-3-acetic acid 4-(thioxo-5H-[1,2]dithiol-3-yl)-phenyl ester], in data set [2], the “reduction of the number of ACF” value worked out at 45%.

Take `CC1=C(CC(=O)OCCSS(C)(=O)=O)c2cc(F)ccc2/C1=C\c1ccc([S+](C)[O-])cc1` (centres unmarked) [Example 4, (Z)-5-Fluoro-2-methyl-1-[[4-(methylsulfinyl)phenyl]methylene]-1H-indene-3-acetic acid 2-methanesulfonylsulfanylethyl ester]: in the data set on Caco 2 cells (Homo sapiens), the 50% inhibitory concentration (IC50) amounted to 55 µM. In the data set with Caco 2 cells (compound at IC50 concentration incubated with submaximal concentrations of standard agents), the “anti-proliferative activity in combination with anti-tumoral standard agents” value was “marked potentiation”.

For the compound `O=c1[nH]cc(F)c(=O)[nH]1` [Example 5-FU], the half-inhibitory concentration (IC50) in the data set with Caco 2 cells was determined as 28 µM.

For `CC1=C(CC(=O)OCCSS(C)(=O)=O)c2cc(F)ccc2/C1=C\c1ccc(S(C)(=O)=O)cc1` [Example 8, (Z)-5-Fluoro-2-methyl-1-[[4-(methylsulfone)phenyl]methylene]-1H-indene-3-acetic acid 2-methanesulfonylsulfanylethyl ester], in data set [2], the “reduction of the number of ACF” value was found to be 60%.

Regarding `CC1=C(CC(=O)O)c2cc(F)ccc2/C1=C\c1ccc([S+](C)[O-])cc1` (centres unmarked) [Sulindac sulfoxide, (Z)-5-Fluoro-2-methyl-1-[[4-(methylsulfinyl)phenyl]methylene]-1H-indene-3-acetic acid], the “reduction of the number of ACF” value in data set [2] came out at 46%. Also, in data set [1], the “% deaths” value is 70% and the “% gastrontestinal ulcers” value was found to be 100%.

In the case of `Cc1ccc(-c2cc(C(F)(F)F)nn2-c2ccc(S(N)(=O)=O)cc2)cc1` [celecoxib], in data set [2], the “reduction of the number of ACF” value was determined as 22%. The IC50 in the data set on Caco 2 cells (Homo sapiens) is 60 µM.

`CC1=C(CC(=O)O)c2cc(F)ccc2/C1=C\c1ccc(S(C)(=O)=O)cc1` [sulindac sulfone, (Z)-5-Fluoro-2-methyl-1-[[4-(methylsulfone)phenyl]methylene]-1H-indene-3-acetic acid]: in data set [2], the “reduction of the number of ACF” value is 36%.
